Reference: US6730672B2, “Aminoheterocyclic derivatives as antithrombotic or anticoagulant agents” (Zeneca Limited, priority 1994, dated 2004)

Biological target: human thrombin (Homo sapiens, UniProt P00734)
Assay: Measurement of Thrombin Inhibition (chromogenic substrate S-2238)
Assay type: biochemical
Conditions: test b), read-out: IC50 against thrombin
Description: b) Measurement of Thrombin Inhibition
The procedure of method a) was repeated except that human thrombin (0.005 Units/ml) and the chromogenic substrate S-2238 (KabiVitum AB) were employed.

Row | IC50 [µM] | Structure (SMILES)
1 | 83 | O=C(C1CCN(c2ccncc2)CC1)N1CCN(S(=O)(=O)c2ccc(-c3ccc(Cl)cc3)cc2)CC1 [Example 41, Compound No. 3, 1-(4′-chloro-4-biphenylylsulphonyl)-4-[1-(4-pyridyl)-piperidin-4-ylcarbonyl]piperazine]

Tested on: not given
Assay: not given
Conditions: not given

Row | melting point | Structure (SMILES)
2 | 230 to 233 °C | O=C(C1CCN(c2nc(Cl)nc(Cl)n2)CC1)N1CCN(S(=O)(=O)c2ccc3cc(Cl)ccc3c2)CC1 [Example 73, 1-(6-chloronaphth-2-ylsulphonyl)-4-[1-(4,6-dichloro-1,3,5-triazin-2-yl)piperidin-4-ylcarbonyl]piperazine]
3 | 107 to 109 °C | O=C(CNS(=O)(=O)c1ccc2ccccc2c1)NCCNC(=O)C1CCN(c2ccncc2)CC1 [Example 30, 2-(2-naphthalenesulphonamido)-N-{2-[1-(4-pyridyl)piperidin-4-ylcarbonylamino]ethyl}acetamide]
4 | 210 to 212 °C | O=C(N1CCN(c2ccncc2)CC1)N1CCN(S(=O)(=O)c2ccc3ccccc3c2)CC1 [Example 50, 1-(2-naphthylsulphonyl)-4-[4-(4-pyridyl)-piperazin-1-ylcarbonyl]piperazine]
5 | 224 to 226 °C | O=C(C1CCN(c2ccncc2)CC1)N1CCN(S(=O)(=O)c2ccc(-c3ccccn3)cc2)CC1 [Example 60, 1-[4-(2-pyridyl)phenylsulphonyl]-4-[1-(4-pyridyl)piperidin-4-ylcarbonyl]piperazine]
6 | 148 to 149 °C | O=C(CC1CCN(c2ccncc2)CC1)NCC(NC(=O)CNS(=O)(=O)c1ccc2ccccc2c1)C(=O)N1CCCCC1 (stereo not drawn) [Example 4, 2-(2-naphthalenesulphonamido)-N-(1-piperidinocarbonyl-2-{2-[1-(4-pyridyl)piperidin-4-yl]acetamido}ethyl)acetamide]
7 | 108 to 111 °C (dec.) | O=C(CNS(=O)(=O)c1ccc2ccccc2c1)NC(CNC(=O)C1CCN(c2ccncc2)CC1)C(=O)O (stereo not drawn) [Example 9, 2-[2-(2-naphthalenesulphonamido)acetamido]-3-[1-(4-pyridyl)piperidin-4-ylcarbonylamino]propionic acid]
8 | 186 to 188 °C | O=C(C1CCN(c2ccncc2)CC1)N1CCN(S(=O)(=O)c2ccc3ccccc3c2)C(Cc2ccccc2)C1 (stereo not drawn) [Example 66, 2-benzyl-1-(2-naphthylsulphonyl)-4-[1-(4-pyridyl)piperidin-4-ylcarbonyl]piperazine]
9 | 172 to 173 °C | O=C(C1CCN(c2ccncc2)CC1)N1CCN(S(=O)(=O)c2ccc3ccccc3c2)CC1 [Example 2, 1-(2-naphthylsulphonyl)-4-[1-(4-pyridyl)piperidin-4-ylcarbonyl]piperazine]
10 | 201 to 203 °C | O=C(CNS(=O)(=O)c1ccc2ccccc2c1)N[C@@H](CC(=O)N1CCN(c2ccncc2)CC1)C(=O)N1CCCCC1 [Example 18, 2-(2-naphthalenesulphonamido)-N-{(1S)-1-(piperidinocarbonyl)-2-[4-(4-pyridyl)piperazin-1-ylcarbonyl]ethyl}-acetamide]
11 | 142 to 145 °C | CCOC(=O)C(CNC(=O)C1CCN(c2ccncc2)CC1)NC(=O)CNS(=O)(=O)c1ccc2ccccc2c1 (stereo not drawn) [Example 6, N-{1-ethoxycarbonyl-2-[1-(4-pyridyl)-piperidin-4-ylcarbonylamino]ethyl}-2-(2-naphthalenesulphonamido)-acetamide]
12 | 201 to 205 °C | Cl.O=C(c1ccc(NS(=O)(=O)c2ccc(-c3ccc(Br)cc3)cc2)cc1)N1CCN(c2ccncc2)CC1
13 | 265 to 267 °C | Nc1nccc(N2CCC(C(=O)N3CCN(S(=O)(=O)c4ccc5cc(Cl)ccc5c4)CC3)CC2)n1 [Example 70, 4-[1-(2-aminopyrimidin-4-yl)piperidin-4-ylcarbonyl]-1-(6-chloronaphth-2-ylsulphonyl)piperazine]
14 | 225 to 226 °C | Cc1cc(N2CCC(C(=O)NCCNC(=O)CNS(=O)(=O)c3ccc4ccccc4c3)CC2)nc(N)n1 [Example 34, N-{2-[1-(2-amino-6-methylpyrimidin-4-yl)piperidin-4-ylcarbonylamino]ethyl}-2-(2-naphthalenesulphonamido)acetamide]
15 | 188 to 193 °C | O=C(O)C1CN(C(=O)C2CCN(c3ccncc3)CC2)CCN1S(=O)(=O)c1ccc2ccccc2c1 (stereo not drawn) [Example 43, 1-(2-naphthylsulphonyl)-4-[1-(4-pyridyl)piperidin-4-ylcarbonyl]-piperazine-2-carboxylic acid]
16 | 225 to 228 °C (dec.) | O=C(O)C1CN(S(=O)(=O)c2ccc3ccccc3c2)CCN1C(=O)C1CCN(c2ccncc2)CC1 (stereo not drawn) [Example 61, 2-carboxy-4-(2-naphthylsulphonyl)-1-[1-(4-pyridyl)piperidin-4-ylcarbonyl]piperazine]
17 | 203 to 205 °C | O=C(C1CCN(c2ccncn2)CC1)N1CCN(S(=O)(=O)c2ccc3ccccc3c2)CC1 [Example 55, 1-(2-naphthylsulphonyl)-4-[1-(4-pyrimidinyl)piperidin-4-ylcarbonyl]-piperazine]

Row | melting point | Structure (SMILES)
18 | 218 to 219 °C | O=C(C1CCN(c2ccncn2)CC1)N1CCN(S(=O)(=O)c2ccc3cc(Cl)ccc3c2)CC1 [Example 69, 1-(6-chloronaphth-2-ylsulphonyl)-4-[1-(4-pyrimidinyl)-piperidin-4-ylcarbonyl]piperazine]
19 | 178 to 180 °C | O=C(C1CCN(c2ccncc2)CC1)N1CCCN(S(=O)(=O)c2ccc3ccccc3c2)CC1 [Example 49, 1-(2-naphthylsulphonyl)-4-[1-(4-pyridyl)piperidin-4-ylcarbonyl]-1,4-diazepane]
20 | 216 to 222 °C (dec.) | O=C(O)C1CN(S(=O)(=O)c2ccc3cc(Br)ccc3c2)CCN1C(=O)C1CCN(c2ccncc2)CC1 (stereo not drawn) [Example 83, 4-(6-bromonaphth-2-ylsulphonyl)-2-carboxy-1-[1-(4-pyridyl)piperidin-4-ylcarbonyl]piperazine]
21 | 209 to 210 °C | O=C(C1CCN(c2ccncn2)CC1)N1CCN(S(=O)(=O)/C=C/c2ccc(Cl)cc2)CC1 [Example 57, 1-[(E)-4-chlorostyrylsulphonyl]-4-[1-(4-pyrimidinyl)piperidin-4-ylcarbonyl]piperazine]
22 | 213 to 217 °C | Cc1ccc(-c2ccc(S(=O)(=O)N3CCN(C(=O)C4CCN(c5ccncc5)CC4)CC3)cc2)cc1 [Example 58, 1-(4′-methylbiphenyl-4-ylsulphonyl)-4-[1-(4-pyridyl)piperidin-4-ylcarbonyl]piperazine]
23 | 229 to 230 °C | O=C(C1CCN(S(=O)(=O)c2ccc3cc(Br)ccc3c2)CC1)N1CCN(c2ccncc2)CC1 [Example 92, 1-[1-(6-bromonaphth-2-ylsulphonyl)piperidin-4-ylcarbonyl]-4-(4-pyridyl)piperazine]
24 | 210 to 212 °C | Cc1cc(N2CCC(C(=O)N3CCN(S(=O)(=O)c4ccc5cc(Cl)ccc5c4)CC3)CC2)nc(N)n1 [Example 86, 4-[1-(2-amino-6-methylpyrimidin-4-yl)piperidin-4-ylcarbonyl]-1-(6-chloronaphth-2-ylsulphonyl)piperazine]
25 | 201 to 203 °C | O=C(CCNS(=O)(=O)c1ccc2ccccc2c1)NC(CNC(=O)C1CCN(c2ccncc2)CC1)C(=O)N1CCCCC1 (stereo not drawn) [Example 20, 3-(2-naphthalenesulphonamido)-N-{1-(piperidinocarbonyl)-2-[1-(4-pyridyl)piperidin-4-ylcarbonylamino]ethyl}propionamide]
26 | 252 to 253 °C | Cc1ccc(NC(=O)NC(CNC(=O)C2CCN(c3ccncc3)CC2)C(=O)N2CCCCC2)cc1 (stereo not drawn) [Example 22, N-{2-piperidinocarbonyl-2-[3-(4-tolyl)ureido]ethyl}-1-(4-pyridyl)-piperidine-4-carboxamide]
27 | 200 to 202 °C | O=C(CNS(=O)(=O)c1ccc2ccccc2c1)NCC(NC(=O)C1CCN(c2ccncc2)CC1)C(=O)N1CCCCC1 (stereo not drawn) [Example 11, 2-(2-naphthalenesulphonamido)-N-{2-piperidinocarbonyl-2-[1-(4-pyridyl)piperidin-4-ylcarbonylamino]ethyl}acetamide]
28 | 223 to 226 °C | O=C(CNS(=O)(=O)c1ccc2ccccc2c1)NC(CNC(=O)N1CCN(c2ccncc2)CC1)C(=O)N1CCCCC1 (stereo not drawn) [Example 3, 2-(2-naphthalenesulphonamido)-N-{1-piperidinocarbonyl-2-[4-(4-pyridyl)piperazin-1-ylcarbonylamino]-ethyl}acetamide]
29 | 207 to 209 °C | O=C(c1ccc(NS(=O)(=O)/C=C/c2ccc(Cl)cc2)cc1)N1CCN(c2ccncc2)CC1 [Example 89, N-{4-[4-(4-pyridyl)piperazin-1-ylcarbonyl]phenyl}-(E)-4-chlorostyrenesulphonamide]
30 | 235 to 237 °C | O=C(C1CN(S(=O)(=O)c2ccc3cc(Br)ccc3c2)CCN1C(=O)C1CCN(c2ccncc2)CC1)N1CCOCC1 (stereo not drawn) [Example 84, 4-(6-bromonaphth-2-ylsulphonyl)-2-morpholinocarbonyl-1-[1-(4-pyridyl)-piperidin-4-ylcarbonyl]piperazine]
31 | 117 to 121 °C | CCOC(=O)C1CN(S(=O)(=O)c2ccc3cc(Br)ccc3c2)CCN1C(=O)C1CCN(c2ccncc2)CC1 (stereo not drawn) [Example 82, 4-(6-bromonaphth-2-ylsulphonyl)-2-ethoxycarbonyl-1-[1-(4-pyridyl)-piperidin-4-ylcarbonyl]piperazine]
32 | 178 to 179 °C | O=C(CNS(=O)(=O)c1ccc2ccccc2c1)NCCNC(=O)C1CCN(c2ccncn2)CC1 [Example 32, 2-(2-naphthalenesulphonamido)-N-{2-[1-(4-pyrimidinyl)piperidin-4-ylcarbonylamino]ethyl}acetamide]

Biological target: human Factor Xa (Homo sapiens, UniProt P00742)
Assay: Measurement of Factor Xa Inhibition (chromogenic substrate S-2765)
Assay type: biochemical
Conditions: test a), pH7.5, 37° C., read-out: IC50 against Factor Xa
Protocol: a) Measurement of Factor Xa Inhibition
An in vitro assay system was carried out based on the method of Kettner et al., J. Biol. Chem., 1990, 265, 18289-18297, whereby various concentrations of a test compound were dissolved in a pH7.5 buffer containing 0.5% of polyethylene glycol and incubated at 37° C. with human Factor Xa (0.001 Units/ml, 0.3 ml) for 15 minutes. The chromogenic substrate S-2765 (KabiVitum AB, 20 μM) was added and the mixture was incubated at 37° C. for 20 minutes whilst the absorbance at 405 nm was measured. The maximum reaction velocity (Vmax) was determined and compared with that of a control sample containing no test compound. Inhibitor potency was expressed as an IC50 value.

Sequence of human Factor Xa (P00742 235-488 limits assumed): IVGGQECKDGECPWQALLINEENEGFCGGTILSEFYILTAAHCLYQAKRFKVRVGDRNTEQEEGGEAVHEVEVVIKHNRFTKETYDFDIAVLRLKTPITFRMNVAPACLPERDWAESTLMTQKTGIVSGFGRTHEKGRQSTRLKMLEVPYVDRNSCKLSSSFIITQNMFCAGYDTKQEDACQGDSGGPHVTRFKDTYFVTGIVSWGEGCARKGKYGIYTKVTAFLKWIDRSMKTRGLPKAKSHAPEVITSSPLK
Sequence of human Factor Xa (P00742 41-179 partner limits assumed): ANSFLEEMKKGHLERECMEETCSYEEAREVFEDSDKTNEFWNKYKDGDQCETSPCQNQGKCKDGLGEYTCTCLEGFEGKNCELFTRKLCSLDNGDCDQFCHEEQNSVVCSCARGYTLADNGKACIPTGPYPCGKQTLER

Row | IC50 [µM] | Structure (SMILES)
33 | 0.01 | O=C(C1CCN(c2ccncc2)CC1)N1CCN(S(=O)(=O)c2ccc(-c3ccc(Cl)cc3)cc2)CC1 [Example 41, Compound No. 3, 1-(4′-chloro-4-biphenylylsulphonyl)-4-[1-(4-pyridyl)-piperidin-4-ylcarbonyl]piperazine]
